The test system of one test is rat pituitary GH3 cells. The test is described as follows: TH-induced proliferation of GH3 cells, hemocytometer cell count. In kind it is cell-based. The note with it: 10 nM T3, all three sera, relative to vehicle controls. The protocol:
FIG. 5 is evidence that serum from other species is suitable for use in thyroid hormone induction experiments with mammalian cells. 3.5×10^4 rat pituitary GH3 cells were plated in duplicate at a density of 2×10^4 cells/cm^2 and cultured in the presence of medium containing either 10% charcoal stripped fetal calf serum (stripped), serum from salmon parr (salmon), or Rana catesbeiana tadpoles (RTS). After 2 days, 10 nM T3 or vehicle control was added and the cells were counted 5 days later after trypsinization on a hemocytometer. The total cell numbers are indicated with vehicle control (white bars) and T3-exposed (black bars) cells in accordance with an embodiment.
Two frog cell lines, XTC-2 cells (Machuca and Tata 1992) and XLA cells (Kanamori and Brown 1993) were obtained from J. Tata and D. Brown, respectively and grown in 70% Liebovitz medium supplemented with 10% bovine growth serum, 100 µg/ml gentamycin sulfate and 10 mM Hepes, pH 7.5 (GIBCO/Invitrogen, Grand Island, N.Y.). These cells were grown at 25° C. in air. The rat pituitary tumor GH3 cell line was obtained from R. T. Zoeller and maintained in Kaighn's modification of Ham's F 12 medium with 2 mM glutamine, 1.5 g/L sodium bicarbonate, 10% fetal bovine serum, 1,000 U/ml penicillin, and 1 mg/ml streptomycin at 37° C. in 5% CO2. […]

For test [1], the system named is TH receptor β (TRβ) gene expression. The test is described as follows: TRβ transcript levels by RT-QPCR in XTC-2 cells cultured in serum-containing medium. It is filed as cell-based, Xenopus laevis. The protocol: The indicated cell types were plated at a density of 2×10^4 cells/cm^2 and cultured in the presence of medium containing either 10% charcoal stripped fetal calf serum (stripped) or Rana tadpole serum (RTS). […] All values were normalized to an invariant L8 ribosomal protein transcript. A) Relative expression levels of the control cells. B) Fold change of the TRβ transcript levels relative to the control, uninduced cells in accordance with an embodiment. […] XTC cells were plated in triplicate at a density of 2×10^4 cells/cm^2 and cultured in the presence of medium containing either 10% charcoal stripped fetal calf serum (CS) or Rana tadpole serum from different premetamorphic (VI, XII) or prometamorphic (XV, XVIII) stages (Taylor and Kollros, 1946). […] All values were normalized to an invariant L8 ribosomal protein transcript. The relative expression levels are indicated with vehicle control (white bars) and T3-exposed (black bars) cells in accordance with an embodiment. FIG. 3 is evidence that serum from other species is suitable for use in thyroid hormone induction experiments. XTC cells were plated at a density of 2×10^4 cells/cm^2 and cultured in the presence of medium containing either 10% charcoal stripped fetal calf serum (stripped), serum from salmon Parr (salmon), or neotenic salamanders (salamander). […] All values were normalized to an invariant L8 ribosomal protein transcript. […]

Test [2] shares this test system. Description: TRβ transcript levels by RT-QPCR in XLA cells cultured in serum-containing medium. The note with it: 10 nM T3, 2 days, relative to uninduced control. In kind it is cell-based, Xenopus laevis. As for the experimental part:
The indicated cell types were plated at a density of 2×10^4 cells/cm^2 and cultured in the presence of medium containing either 10% charcoal stripped fetal calf serum (stripped) or Rana tadpole serum (RTS). […] All values were normalized to an invariant L8 ribosomal protein transcript. A) Relative expression levels of the control cells. B) Fold change of the TRβ transcript levels relative to the control, uninduced cells in accordance with an embodiment. […] The expression of TRβ and GH gene transcripts was analyzed using a MX4000 real-time quantitative polymerase chain reaction system (Stratagene, La Jolla, Calif., USA) as described previously (Crump, Werry et al. 2002) using gene specific primers (for TRβ: UP primer 5'-[NT]; DOWN primer 5'-[NT]; for GH: UP primer 5'-[NT]; DOWN primer 5'-[NT] The annealing temperature was 55° C. A standard curve for each primer pair was generated using the appropriate quantified plasmid DNA containing the target gene sequence. Quadruplicate reactions were performed for each sample and data were averaged and normalized to the expression of the control gene encoding the ribosomal protein L8. […] Total RNA was isolated from these cells and analyzed for the levels of the TRβ gene by reverse transcription quantitative real time polymerase chain reaction (RT-QPCR). […]

Test [3] concerns growth hormone (GH) mRNA transcript. The test is described as follows: GH transcript levels by RT-QPCR in GH3 cells cultured in serum-containing medium. In kind it is cell-based, rat. The settings on record: 10 nM T3, 2 days, relative to uninduced control. As for the experimental part: The indicated cell types were plated at a density of 2×10^4 cells/cm^2 and cultured in the presence of medium containing either 10% charcoal stripped fetal calf serum (stripped) or Rana tadpole serum (RTS). […] All values were normalized to an invariant L8 ribosomal protein transcript. A) Relative expression levels of the control cells. B) Fold change of the GH transcript levels relative to the control, uninduced cells in accordance with an embodiment. […] The expression of TRβ and GH gene transcripts was analyzed using a MX4000 real-time quantitative polymerase chain reaction system (Stratagene, La Jolla, Calif., USA) as described previously (Crump, Werry et al. 2002) using gene specific primers (for TRβ: UP primer 5'-[NT]; DOWN primer 5'-[NT]; for GH: UP primer 5'-[NT]; DOWN primer 5'-[NT] The annealing temperature was 55° C. A standard curve for each primer pair was generated using the appropriate quantified plasmid DNA containing the target gene sequence. Quadruplicate reactions were performed for each sample and data were averaged and normalized to the expression of the control gene encoding the ribosomal protein L8.

We go through one compound from patent US7754443B2, “Serum replacement for thyroid hormone-responsive cell culture” (University of Victoria Innovation and Development …, priority 2005, dated 2010).

As to `N[C@@H](Cc1cc(I)c(Oc2ccc(O)c(I)c2)c(I)c1)C(=O)O` [T3, 3,5,3′-triiodothyronine], the “GH3 proliferation on exposure to T3” value in the test with rat pituitary GH3 cells was “increased proliferation”. In addition, the “TRβ levels after addition of T3” value in test [1] (XTC cells, 10 nM T3, in charcoal stripped serum or RTS of stages VI, XII, XV, XVIII (all cases)) is given as “robust elevation”. Also, the “TRβ mRNA levels on exposure to T3” value in test [1] (XTC-2 cells, 10 nM T3, 2 days, relative to uninduced control) is given as “increase”; in test [2], “increase”. The “GH mRNA levels on exposure to T3” value in test [3] is “increase”.
